Source: patent US20250011288A1 (BRISTOL-MYERS SQUIBB COMPANY, priority 2021, published 2025)

Molecular target: T1, human RXFP1 (Homo sapiens, UniProt Q9HBX9)
T1 construct: expressed in transfected cells
T1 sequence (Q9HBX9 1-757): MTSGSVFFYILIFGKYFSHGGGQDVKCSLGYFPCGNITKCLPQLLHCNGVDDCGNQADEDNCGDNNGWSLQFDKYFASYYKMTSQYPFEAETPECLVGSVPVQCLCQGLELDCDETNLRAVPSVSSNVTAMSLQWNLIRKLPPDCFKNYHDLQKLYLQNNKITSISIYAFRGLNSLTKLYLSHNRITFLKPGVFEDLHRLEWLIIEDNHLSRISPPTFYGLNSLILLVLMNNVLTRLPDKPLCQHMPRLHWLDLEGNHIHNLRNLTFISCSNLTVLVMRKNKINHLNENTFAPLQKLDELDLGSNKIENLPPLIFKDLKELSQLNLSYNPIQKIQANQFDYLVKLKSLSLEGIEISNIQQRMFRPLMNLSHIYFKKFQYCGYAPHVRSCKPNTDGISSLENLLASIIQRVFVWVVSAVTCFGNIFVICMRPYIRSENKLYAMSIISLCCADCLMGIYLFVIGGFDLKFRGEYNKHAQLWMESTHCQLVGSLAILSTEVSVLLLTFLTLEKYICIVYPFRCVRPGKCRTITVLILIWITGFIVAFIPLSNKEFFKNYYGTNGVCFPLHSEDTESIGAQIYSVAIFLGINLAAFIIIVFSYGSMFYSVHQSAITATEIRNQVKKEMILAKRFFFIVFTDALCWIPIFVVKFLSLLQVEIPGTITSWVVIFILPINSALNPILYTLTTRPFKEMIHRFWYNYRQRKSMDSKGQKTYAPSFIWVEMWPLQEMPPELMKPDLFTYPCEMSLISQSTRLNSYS
Experiment: human RXFP1 (hRXFP1) HEK293 cAMP assay (HTRF)
Format: cell-based
Settings: HEK293 cells stably expressing human RXFP1, 30 min at room temperature
In short: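 Intracellular cAMP was quantified by HTRF after a 30 min room-temperature exposure of hRXFP1-HEK293 cells (1500/well) to compound at 0.010 nM–50 µM final, 2% DMSO. Buffer was HBSS with 20 mM HEPES, 0.05% BSA and 0.5 mM IBMX; values came from a 4-parameter logistic fit.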

Compared with `COc1ncc(C2=NOC3CC(CO)CC23)cc1C(=O)N[C@@H]1C2CCC(/C2=C/C2CC2)[C@@H]1C(=O)N[C@H](C)C1(C(F)(F)F)CC1` (stereo partly shown) [Example 141], `COc1ncc(C2=NOC3CC(CO)CC23)cc1C(=O)N[C@@H]1C2CCC(/C2=C/C2CC2)[C@@H]1C(=O)Nc1ccc(F)c(C(F)(F)F)c1` (single isomer, unassigned) [Example 69] is 2.3-fold lower in EC50: 3.4 nM for the first, 1.5 nM for the second. The second is the more potent here.

Compared with `COc1ncc(C2=NOC3CC(O)CC23)cc1C(=O)N[C@H]1[C@@H](C(=O)Nc2ccc(F)c(C(F)(F)F)c2)[C@H]2CC[C@@H]1/C2=C\CCC(F)(F)F` (stereo partly drawn) [Example 121, N-((1R,2R,3S,4R,Z)-3-((4-fluoro-3-(trifluoromethyl)phenyl)carbamoyl)-7-(4,4,4-trifluorobutylidene)bicyclo[2.2.1]heptan-2-yl)-5-(5-hydroxy-3a,5,6,6a-tetrahydro-4H-cyclopenta[d]isoxazol-3-yl)-2-methoxynicotinamide], `COc1ncc(C2=NOC3CC(CO)CC23)cc1C(=O)N[C@H]1[C@@H](C(=O)Nc2ccc(F)c(C(F)(F)F)c2)[C@H]2CC[C@@H]1/C2=C\CCC(F)(F)F` (stereo partly drawn) [Example 139, N-((1R,2R,3S,4R,Z)-3-((4-fluoro-3-(trifluoromethyl)phenyl)carbamoyl)-7-(4,4,4-trifluorobutylidene)bicyclo[2.2.1]heptan-2-yl)-5-(5-(hydroxymethyl)-3a,5,6,6a-tetrahydro-4H-cyclopenta[d]isoxazol-3-yl)-2-methoxynicotinamide] is 2.2-fold higher in EC50: 1.3 nM for the first, 2.9 nM for the second.

First: COc1ccc(-c2cc(C(=O)O)ccc2F)nc1C(=O)N[C@@H]1C2CCC(/C2=C/c2cnoc2)[C@@H]1C(=O)Nc1ccc(F)c(C(F)(F)F)c1 (stereo partly drawn) [Example 27, 4-Fluoro-3-(6-{[(2R,3S,7Z)-3-{[4-fluoro-3-(trifluoromethyl)phenyl]carbamoyl}-7-[(1,2-oxazol-4-yl)methylidene]bicyclo[2.2.1]heptan-2-yl]carbamoyl}-5-methoxypyridin-2-yl)benzoic acid]
Second: COc1ncc(-c2cc(C(=O)O)ccc2F)nc1C(=O)N[C@@H]1C2CCC(C2=C(C)C)[C@@H]1C(=O)Nc1ccc(F)c(C(F)(F)F)c1 (stereo partly drawn) [Example 24, 4-Fluoro-3-(6-{[(2R,3S)-3-{[4-fluoro-3-(trifluoromethyl)phenyl]carbamoyl}-7-(propan-2-ylidene)bicyclo [2.2.1]heptan-2-yl]carbamoyl}-5-methoxypyrazin-2-yl)benzoic acid]
The EC50 of the first is 3.4-fold lower: 290 nM for the first, 1000 nM for the second.

Compared with `COc1ncc(C2=NO[C@H]3C[C@H](CO)CN23)cc1C(=O)N[C@@H]1C2CCC(/C2=C/C2CC2)[C@@H]1C(=O)N[C@H](C)C1(C)CC1` (stereo partly drawn) [Example 107, N-((1R,2R,3S, 4R,Z)-7-(cyclopropyl-methylene)-3-(((R)-1-(1-methylcyclopropyl)ethyl)carbamoyl)bicyclo[2.2.1]heptan-2-yl)-5-((6S,7aS)-6-(hydroxymethyl)-5,6,7,7a-tetrahydropyrrolo [1,2-d][1,2,4]oxadiazo 1-3-yl)-2-methoxynicotinamide], `COc1ncc(C2=NOC3CC(CO)CC23)cc1C(=O)N[C@@H]1C2CCC(/C2=C/C2CC2)[C@@H]1C(=O)Nc1ccc(F)c(C(F)(F)F)c1` (single isomer, unassigned) [Example 67] is 120-fold higher in EC50: 2.6 nM for the first, 300 nM for the second. The first is the more potent here.

Going from `COc1ncc(-c2cccc(C(=O)O)c2)cc1C(=O)N[C@@H]1C2CCC(/C2=C/C(F)(F)F)[C@@H]1C(=O)Nc1ccc(F)c(C(F)(F)F)c1` (stereo partly drawn) [Example 29, 3-(5-{[(2R,3S,7Z)-3-{[4-fluoro-3-(trifluoromethyl)phenyl]carbamoyl}-7-(2,2,2-trifluoroethylidene)bicyclo[2.2.1]heptan-2-yl]carbamoyl}-6-methoxypyridin-3-yl)benzoic acid] to `O=C(N[C@@H]1C2CCC(/C2=C/C(F)(F)F)[C@@H]1C(=O)Nc1ccc(F)c(C(F)(F)F)c1)c1cc(Br)cnc1OCCO` (stereo partly drawn) [Example 41, 5-bromo-N-[(2R,3S,7Z)-3-{[4-fluoro-3-(trifluoromethyl)phenyl]carbamoyl}-7-(2,2,2-trifluoroethylidene)bicyclo[2.2.1]heptan-2-yl]-2-(2-hydroxyethoxy) pyridine-3-carboxamide], the EC50 rises from 136 nM to 770 nM (5.7-fold). The first is the more potent here.

Compared with `COc1cc2c(cc1C(=O)N[C@H]1[C@@H](C(=O)Nc3ccc(F)c(C(F)(F)F)c3)[C@H]3CC[C@@H]1/C3=C\C1CC1)CN(CC(C)(C)O)CC2` [Example 85, N-((1R,2R,3S,4R,Z)-7-(cyclopropylmethylene)-3-((4-fluoro-3-(trifluoromethyl)phenyl)carbamoyl)bicyclo[2.2.1]heptan-2-yl)-2-(2-hydroxy-2-methylpropyl)-6-methoxy-1,2,3,4-tetrahydroisoquinoline-7-carboxamide], `COc1ncc(C2=NOC3CC(C(C)O)CC23)cc1C(=O)N[C@H]1[C@@H](C(=O)Nc2ccc(F)c(C(F)(F)F)c2)[C@H]2CC[C@@H]1/C2=C\C1CC1` (stereo partly drawn) [Example 110, N-((1R,2R,3S, 4R,Z)-7-(cyclopropyl-methylene)-3-((4-fluoro-3-(trifluoromethyl)phenyl)carbamoyl)bicyclo[2.2.1]heptan-2-yl)-5-(5-(1-hydroxyethyl)-3a,5,6,6a-tetrahydro-4H-cyclopenta[d]isoxazol-3-yl)-2-methoxy-nicotinamide] is 57-fold lower in EC50: 200 nM for the first, 3.5 nM for the second. The second is the more potent here.

`COc1ncc(C2=NOC3CC(C(C)O)CC23)cc1C(=O)N[C@H]1[C@@H](C(=O)Nc2ccc(F)c(C(F)(F)F)c2)[C@H]2CC[C@@H]1/C2=C\C1CCCC1` (stereo partly drawn) [Example 128, N-((1R,2R,3S,4R,Z)-7-(cyclopentylmethylene)-3-((4-fluoro-3-(trifluoromethyl)phenyl)carbamoyl)bicyclo[2.2.1]heptan-2-yl)-5-(5-(1-hydroxyethyl)-3a,5,6,6a-tetrahydro-4H-cyclopenta[d]isoxazol-3-yl)-2-methoxynicotinamide] and `COc1ncc(C2=NOC3OCCCC23)cc1C(=O)N[C@H]1[C@@H](C(=O)Nc2ccc(F)c(C(F)(F)F)c2)[C@H]2CC[C@@H]1/C2=C\C1CCCC1` (stereo partly drawn) [Example 125, N-((1R,2R, 3S,4R,Z)-7-(cyclopentyl-methylene)-3-((4-fluoro-3-(trifluoromethyl)phenyl)carbamoyl)bicyclo[2.2.1]heptan-2-yl)-2-methoxy-5-(3a,5,6,7a-tetrahydro-4H-pyrano[3,2-d]isoxazol-3-yl)nicotinamide] are within 1.5-fold of each other in EC50: 4.9 nM for the first, 3.6 nM for the second.

Going from `COc1ncc(-c2cc([C@H](OC(=O)NC3CCC3)C(F)(F)F)ccc2F)cc1C(=O)N[C@@H]1C2CCC(/C2=C/CCC(F)(F)F)[C@@H]1C(=O)Nc1ccc(F)c(C(F)(F)F)c1` (stereo partly drawn) [Example 168, (1S)-2,2,2-trifluoro-1-[4-fluoro-3-(5-{[(2R,3S,7Z)-3-{[4-fluoro-3-(trifluoromethyl)phenyl]carbamoyl}-7-(4,4,4-trifluorobutylidene)bicyclo[2.2.1]heptan-2-yl]carbamoyl}-6-methoxypyridin-3-yl)phenyl]ethyl N-cyclobutyl-carbamate] to `COc1ncc(-c2cc([C@H](OC(=O)Nc3ccccc3)C(F)(F)F)ccc2F)cc1C(=O)N[C@@H]1C2CCC(/C2=C/C2CC2)[C@@H]1C(=O)Nc1ccc(F)c(C(F)(F)F)c1` (stereo partly drawn) [Example 186, (1S)-1-[3-(5-{[(2R,3S,7Z)-7-(cyclopropyl-methylidene)-3-{[4-fluoro-3-(trifluoromethyl)phenyl]carbamoyl}bicyclo[2.2.1]heptan-2-yl]carbamoyl}-6-methoxypyridin-3-yl)-4-fluorophenyl]-2,2,2-trifluoroethyl N-phenylcarbamate], the EC50 falls from 5.3 nM to 0.8 nM (6.6-fold). The second is the more potent here.

`COc1ncc(C2=NOC3CC(C(O)C(F)(F)F)CC23)cc1C(=O)N[C@H]1[C@@H](C(=O)Nc2ccc(F)c(C(F)(F)F)c2)[C@H]2CC[C@@H]1/C2=C\CC(O)C(F)(F)F` (stereo partly drawn) [Example 129, N-((1R,2R,3S,4R,Z)-3-((4-fluoro-3-(trifluoromethyl)phenyl)carbamoyl)-7-(4,4,4-trifluoro-3-hydroxybutylidene)bicyclo[2.2.1]heptan-2-yl)-2-methoxy-5-(5-(2,2,2-trifluoro-1-hydroxyethyl)-3a,5,6,6a-tetrahydro-4H-cyclopenta[d]isoxazol-3-yl)nicotinamide] and `CC1(C)Cc2cc(C3=NOC4CCOCC34)cc(C(=O)N[C@H]3[C@@H](C(=O)Nc4ccc(F)c(C(F)(F)F)c4)[C@H]4CC[C@@H]3/C4=C\C3CC3)c2O1` (stereo partly drawn) [Example 147, 5-{3aH,4H,6H, 7H,7aH-pyrano[3,4-d][1,2]oxazol-3-yl}-N-[(1R,2R,3S,4R,7Z)-7-(cyclopropyl-methylidene)-3-{[4-fluoro-3-(trifluoromethyl)phenyl]carbamoyl}bicyclo[2.2.1]heptan-2-yl]-2,2-dimethyl-2,3-dihydro-1-benzofuran-7-carboxamide] are within 1.5-fold of each other in EC50: 5 nM for the first, 3.8 nM for the second.

Work on `COc1nn(-c2cccc(C(=O)O)c2)cc1C(=O)N[C@@H]1C2CCC(/C2=C/c2ccccc2)[C@@H]1C(=O)Nc1ccc(F)c(C(F)(F)F)c1` (stereo partly drawn) [Example 54, 3-(4-{[(2R,3S,7Z)-3-{[4-fluoro-3-(trifluoromethyl)phenyl]carbamoyl}-7-(phenylmethylidene)bicyclo [2.2.1]heptan-2-yl]carbamoyl}-3-methoxy-1H-pyrazol-1-yl)benzoic acid] yielded an EC50 of 1200 nM.
